Bridge positions count the residues as written; N and C are the ends. Ends that are not written are not given here.
Experiments:
[1] = format: physicochemical; conditions: for solubility with addition of 10% DMSO: 10% dimethylsulfoxide final concentration; for solubility in water: water / aqueous solution
Source text: It is still insufficient to resolve spectrophotometric characteristics with […] as evidenced by the low absorbance intensity and indistinct bands in both absorbance and fluorescence characteristics (FIGS. 1A and 1B). […] In FIGS. 2A-2D, the more traditional Soret and Q-bands in the absorbance spectra are evident, and the expected two peak fluorescence emission spectra are observed. […] Each of the constructs has unique peak positions as well as varying extinction coefficients for the Soret and Q-bands. Fluorescence emission is also uniquely varying amongst the tracers. These factors tend to indicate the formation of unique complexes providing the potential desired for these materials.

E. coli = assay: Microtiter plate absorbance/fluorescence analysis of interaction with bacterial cells (E. coli); format: cell-based
Procedure: (§1) C1TPP and C1TPP-modified antimicrobial peptides were evaluated in a microtiter plate format using a Tecan XSafire monochromator-based microplate reader. Absorbance measurements were collected between 380 and 800 nm at 2 nm resolution. Fluorescence measurements were collected at 2 nm resolution for emission between 550 and 800 nm with excitation at 415 nm and for excitation between 385 and 619 nm with emission at 730 nm.
(§2) The microtiter plate format described above was utilized for analysis of interactions between the porphyrin-AMP constructs and bacterial cells, specifically, E. coli and B. globigii. The bacterial cells utilized were collected at mid-log phase growth and rinsed with water to remove growth media. They were then resuspended in water at approximately 3.5×10^7 cfu/mL. Analyses looked at changes in fluorescence and absorbance for fixed cell concentrations with varying tracer concentrations as well as for fixed tracer concentrations with varying cell concentrations. FIGS. 3A and 3B present data for the interaction between C1TPP and the two cell types, with absorbance (A) and fluorescence (B) spectra for C1TPP in water (black, 10% DMSO) and in the presence of E. coli (dashes) and B. globigii (dots) at 1.8×10^6 cfu/mL.

B. globigii = assay: Microtiter plate absorbance/fluorescence analysis of interaction with bacterial cells (B. globigii); format: cell-based
Procedure: as §1, §2

Molecule | solubility with addition of 10% DMSO [1] | solubility in water [1] | changes in fluorescence on interaction with cells (E. coli; E. coli cells) | changes in absorbance or fluorescence characteristics on interaction with cells (E. coli; E. coli cells, range of concentrations evaluated) | changes in fluorescence on interaction with cells (B. globigii; B. globigii cells) | changes in absorbance or fluorescence characteristics on interaction with cells (B. globigii; B. globigii cells, range of concentrations evaluated) | peak/trough pair in the Soret region of the absorbance difference spectrum (E. coli; in the presence of E. coli cells) | peak/trough pair in the Soret region of the absorbance difference spectrum (B. globigii; in the presence of B. globigii cells)
O=C(O)c1ccc(-c2c3nc(c(-c4ccccc4)c4ccc([nH]4)c(-c4ccccc4)c4nc(c(-c5ccccc5)c5ccc2[nH]5)C=C4)C=C3)cc1 [C1TPP, 5-mono(4-carboxyphenyl)-10,15,20-triphenyl porphine] | increased somewhat | minimally soluble | overall quench | did not produce concentration dependent changes | overall quench | did not produce concentration dependent changes | – | –
C1-Bac: C1TPP covalently attached to Bactenecin (RLCRIVVIRVCR; cyclized via disulfide bridge) (disulfide 3-11 (inferred); also: C1TPP covalently attached, site not given here) | sufficient to maintain the solubility | precipitated from aqueous solution | noted for only the highest concentrations of tracer used | – | noted for only the highest concentrations of tracer used | – | 476/432 | 476/432
